Results reported in US8688427B2, “Enzyme catalysts for diels-alder reactions” (University of Washington, priority 2008, dated 2014).

Legend:
[1] = test system: Diels-Alderase DA_20_00, computational design on Loligo vulgaris diisopropylfluorophosphatase scaffold (PDB-ID 1E1A, SEQ ID NO:2), SEQ ID NO:4; experiment: Kinetics of Diels-Alder reaction catalysed by original design DA_20_00; format: biochemical; settings: 298K, PBS, error = 95% confidence interval
Protocol: (§1) The Diels-Alder reactions were performed in PBS, at 25° C., with 4% DMSO. The DMSO came from the diene, for which the stock solution (100 mM) was made in DMSO and always diluted such that the final reaction would contain 4% DMSO. After incubation of the desired amount of diene and dienophile in the presence or absence of the protein, time points were taken of the reaction (5 μL) and quenched in a solution of 80:20 acetonitrile:water with 0.1% formic acid and 1 mM Benzoic Acid (95 μL). This reaction was incubated for 5 minutes and then the precipitated protein filtered using a Millipore multiscreen solvinert filter plate (Product Number: MSRLN0450). 20 μL of the filtered quench solution was then injected and analyzed using a liquid chromatography-tandem mass spectroscopy (LC-MSMS) assay.
This active design (DA—20—00) was created from a 6-bladed beta barrel propeller scaffold (PDB-ID 1E1A; a diisopropylfluorophosphatase from Loligo vulgaris). […]
The errors represent the calculated 95% confidence interval. The parameter a describes the cooperativity of binding between the two substrates: a value greater than one indicates negative cooperativity, whereas a value lower then one indicates positive cooperativity. α could not be determined for DA—20—00. […]

[2] = test system: Diels-Alderase DA_20_10, variant of DA_20_00 (Loligo vulgaris diisopropylfluorophosphatase scaffold, SEQ ID NO:2) with A21T/A74I/S271A/A173C/Q149R/A272N, SEQ …; experiment: Kinetics of Diels-Alder reaction catalysed by optimized DA_20_10; format: biochemical; settings: 298K
Protocol: (A) Dependence of reaction velocity on diene concentration for different fixed dienophile concentrations. The diene concentration was varied from 3.0 to 0.18 mM with a fixed concentration of 100 mM (⋄), 66 mM (Δ), 44 mM (⋄), 30 mM (◯), 20 mM (◯), or 13 mM (●) dienophile (B) Dependence of reaction velocity on dienophile concentration for different fixed diene concentrations. The dienophile was varied from 100 to 13.0 mM with a fixed concentration of 3 mM (♦), 2 mM (▴), 1.3 mM (∇), 0.9 mM (Δ), 0.6 mM (⋄), 0.4 mM (□), 0.26 mM (◯), or 0.18 mM (●) […]. Reactions were carried out with 20 μM protein in PBS at 298 K.
as §1
To summarize the optimization rounds, residues contacting the transition state in DA—20—00 were mutated individually to sets of residues predicted to retain or improve transition state binding and bolster the two catalytic residues. […] Three of the mutations (FIG. 6C) likely improve the packing around the transition state (A741, A21 T) or catalytic glutamine (A173C). Two of the mutations likely improve the overall electrostatic complementarity with the bound substrates and transition state: Q149R hydrogen bonds to the carboxylate on the diene and S271A makes the dienophile environment more non polar.
The kinetics of the DA—20—10 catalyzed reaction was characterized by measuring the dependence of the reaction velocity on the concentration of both diene and dienophile. The effective molarity (kcat/kuncat) of DA—20—10 is 100 M, and the rate enhancement (kcat/(kuncat*KM_diene)) in the presence of saturating dienophile and limiting diene is 1.0×10^5. At high substrate concentrations DA—20—10 proceeds for more than 30 turnovers before the enzyme loses activity. At higher enzyme concentrations more than 80% of the diene substrate is converted to product.
The errors represent the calculated 95% confidence interval. The parameter a describes the cooperativity of binding between the two substrates: a value greater than one indicates negative cooperativity, whereas a value lower then one indicates positive cooperativity. α could not be determined for DA—20—00. Kinetic parameters for catalytic antibodies 7D4 and 4D5 were taken from (10, 17).

[3] = test system: catalytic antibody mAb 7D4; settings: 310K, cited from earlier work
[4] = test system: catalytic antibody mAb 4D5; settings: 310K, cited from earlier work

C=C/C=C/NC(=O)OCc1ccc(C(=O)O)cc1 [diene, 4-carboxybenzyl trans-1,3-butadiene-1-carbamate]
kcat ([1]; diene + dienophile reaction): 2.8e-06 ± 5.6e-07 s⁻¹
Km ([1]; read-out: KM-diene): 3530 ± 1500 µM
kcat ([2]; PBS, 20 μM protein, diene + dienophile reaction, error = 95% confidence interval): 0.000678 ± 8.3e-05 s⁻¹
Km ([2]; PBS, 20 μM protein, error = 95% confidence interval, read-out: KM-diene): 980 ± 200 µM
a (cooperativity of binding between the two substrates) ([2]; diene and dienophile, >1 indicates negative cooperativity): 1.7 ± 0.7
effective molarity (kcat/kuncat) ([2]; diene + dienophile reaction): 100 M
kcat ([3]; diene + dienophile reaction): 5.83e-05 s⁻¹
a (cooperativity of binding between the two substrates) ([3]; diene and dienophile): 1
Km ([3]; read-out: KM-diene): 960 µM
kcat ([4]; diene + dienophile reaction): 5.83e-05 s⁻¹
a (cooperativity of binding between the two substrates) ([4]; diene and dienophile): 1
Km ([4]; read-out: KM-diene): 1600 µM
